In assay [1] the target is T1, cGAS (Homo sapiens, UniProt Q8N884). Kind of assay: In vitro inhibition assay of cGAS activity (cGAMP production, RapidFire mass spectrometry). It is filed as biochemical. Also on record: Insert cDNA encoding full-length of human cGAS; His6; made in house; host or cells: E. coli BL21(DE3). The settings on record: 10 nM recombinant human cGAS, 60 nM 75-bp dsDNA, 50 μM ATP, 50 μM GTP, 3 hrs. Put shortly:
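His6-tagged full-length human cGAS (10 nM, E. coli-expressed) was incubated for 3 hrs at ambient temperature with 60 nM 75-bp dsDNA, 50 μM ATP and 50 μM GTP in Tris pH 7.5/MgCl2 buffer with compound dilutions. cGAMP was quantified by RapidFire mass spectrometry against an internal standard, and IC50 was obtained by 4-parameter logistic fit.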

In assay [2] the target is T1, cGAS. Kind of assay: Cellular assay to measure cGAS activity (IFNb AlphaLISA in THP1 cells stimulated by RDG-Adenovirus-GFP). It is filed as cell-based. The settings on record: PMA-differentiated THP1 cells, RDG-Adenovirus-GFP at 1000 MOI; inhibition of IFNb production as marker for cGAS activity. Also on record: host or cells: THP1 cells differentiated with PMA and stimulated with RDG-Adenovirus-GFP. The essentials: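 PMA-differentiated THP1 cells were infected with RDG-Adenovirus-GFP at 1000 MOI for 4 h, then exposed overnight to test compounds. IFNb in the supernatant was quantified by AlphaLISA as a cGAS activity marker, and IC50 was fitted with a 4-parameter logistic equation.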

T1 sequence (Q8N884 whole entry): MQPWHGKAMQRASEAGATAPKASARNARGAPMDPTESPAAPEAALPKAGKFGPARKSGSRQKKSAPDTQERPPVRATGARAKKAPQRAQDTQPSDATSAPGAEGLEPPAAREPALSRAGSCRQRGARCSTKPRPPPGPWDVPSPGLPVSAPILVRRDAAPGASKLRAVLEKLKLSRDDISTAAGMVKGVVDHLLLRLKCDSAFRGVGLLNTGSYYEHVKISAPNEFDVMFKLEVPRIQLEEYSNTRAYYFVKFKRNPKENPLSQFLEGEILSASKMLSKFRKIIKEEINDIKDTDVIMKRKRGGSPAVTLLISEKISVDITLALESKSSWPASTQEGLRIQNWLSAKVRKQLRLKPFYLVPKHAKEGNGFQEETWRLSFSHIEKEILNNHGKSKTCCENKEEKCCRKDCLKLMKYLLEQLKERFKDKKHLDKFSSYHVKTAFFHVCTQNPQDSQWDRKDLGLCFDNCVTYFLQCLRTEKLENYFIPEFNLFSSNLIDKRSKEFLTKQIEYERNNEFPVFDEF

In the case of `C[C@H]1C(=O)NCCc2c1c1c(NC(=O)CO)cc(Cl)c(Cl)c1n2C(F)F` (single isomer, unassigned) [Example 145, (R)—N-(7,8-Dichloro-6-(difluoromethyl)-1-methyl-2-oxo-1,2,3,4,5,6-hexahydroazepino[4,5-b]indol-10-yl)-2-hydroxyacetamide or (S)—N-(7,8-Dichloro-6-(difluoromethyl)-1-methyl-2-oxo-1,2,3,4,5,6-hexahydroazepino[4,5-b]indol-10-yl)-2-hydroxyacetamide], the 50% inhibitory concentration (IC50) in assay [1] turned out to be 12.3 nM; in assay [2], 287 nM.
Taken in the same sequence, the figures for `CC1C(=O)NCCc2[nH]c3c(Cl)c(Cl)cc(NCCO)c3c21` (racemic) [Example 49, 7,8-Dichloro-10-((2-hydroxyethyl)amino)-1-methyl-3,4,5,6-tetrahydroazepino[4,5-b]indol-2(1H)-one] were 15 nM and 390 nM.
Taken in the same sequence, the figures for `C[C@@H]1CNC(=O)[C@@H](C)c2c1[nH]c1c(Cl)c(Cl)cc(NCCO)c21` (single isomer, unassigned) [Example 157] were 6680 nM and over 10000 nM.
Taken in the same sequence, the figures for `CC(O)CC1CNC(=O)Cc2c1[nH]c1c(Cl)c(Cl)cc(-c3cnn(C)n3)c21` (stereo not shown) [Example 119, 7,8-Dichloro-5-(2-hydroxypropyl)-10-(2-methyl-2H-1,2,3-triazol-4-yl)-3,4,5,6-tetrahydroazepino[4,5-b]indol-2(1H)-one] were 23.2 nM and 487 nM.
On to `Cn1ncc(-c2cc(Cl)c(Cl)c3c2c2c(n3C)C(CC(C)(C)O)CNC(=O)C2)n1` (stereo not shown) [Example 105, 7,8-Dichloro-5-(2-hydroxy-2-methylpropyl)-6-methyl-10-(2-methyl-2H-1,2,3-triazol-4-yl)-3,4,5,6-tetrahydroazepino[4,5-b]indol-2(1H)-one], for which the IC50 is 38.8 nM in assay [1] and 3250 nM in assay [2].
As for `Cn1ncc(-c2cc(Cl)c(Cl)c3[nH]c4c(c23)CC(=O)NCC4CC(C)(C)O)n1` (stereo not shown) [Example 102, 7,8-Dichloro-5-(2-hydroxy-2-methylpropyl)-10-(2-methyl-2H-1,2,3-triazol-4-yl)-3,4,5,6-tetrahydroazepino[4,5-b]indol-2(1H)-one], the IC50 in assay [1] was found to be 23.2 nM; in assay [2] it was 727 nM.
Taken in the same sequence, the figures for `Cn1ncc(-c2cc(Cl)c(Cl)c3[nH]c4c(c23)CC(=O)NC[C@H]4CC(C)(F)F)n1` (single isomer, unassigned) [Example 136] were 16 nM and 1570 nM.
Consider `Cn1c2c(c3c(OCC#N)cc(Cl)c(Cl)c31)CC(=O)NC[C@H]2CC(C)(C)O` (single isomer, unassigned) [Example 110, (R)-2-((7,8-Dichloro-5-(2-hydroxy-2-methylpropyl)-6-methyl-2-oxo-1,2,3,4,5,6-hexahydroazepino[4,5-b]indol-10-yl)oxy)acetonitrile or (S)-2-((7,8-Dichloro-5-(2-hydroxy-2-methylpropyl)-6-methyl-2-oxo-1,2,3,4,5,6-hexahydroazepino[4,5-b]indol-10-yl)oxy)acetonitrile], for which the IC50 in assay [1] is 2610 nM; in assay [2], 3120 nM.

The record behind these values is patent publication US20240246979A1, “cGAS INHIBITORS” (Eli Lilly and Company, priority 2022, published 2024).
